These results are taken from patent US9539233B2, “Gallium formulation for the treatment and prevention of infectious diseases” (Aridis Pharmaceuticals Inc., priority 2009, dated 2017).

A word on the MIC: it is the least concentration at which growth counts as inhibited. Higher therefore signals a need for much substance.

One assay concerns P. aeruginosa. The note with it: for MIC: iron-starved BM-2 broth.
The test system of a further assay is B. anthracis 7702 cells. Type of assay: cell-based. The following applies: 1:1 gallium-to-citrate molar ratio, approximately 20 hours of growth.
Assay [1] relates to Pa. The following applies: i.t. inoculation of a lethal dose of Pa followed by nasal instillation of a bolus of liquid; mouse; cited from earlier work.
Assay [2] relates to Pa. The note with it: against Pa; cited from earlier work.

Converted amounts (≈) assume the structure as drawn. Like-named read-outs stand apart in the source and are kept apart here. Some results are limits rather than exact numbers.

As to `O=[N+]([O-])[O-].O=[N+]([O-])[O-].O=[N+]([O-])[O-].[Ga+3]` [Gallium, gallium nitrate], the MIC was <1 µg/mL against P. aeruginosa (Mucoid Strain 20JR, 24 hours); <1 µg/mL in the assay on P. aeruginosa (Mucoid Strain 35LK, 24 hours); <32 µg/mL in the assay on P. aeruginosa (Mucoid Strain 41JQ, 24 hours); <1 µg/mL in the assay on P. aeruginosa (Mucoid Strain 47JS, 24 hours); <1 µg/mL against P. aeruginosa (Mucoid Strain 62LL, 24 hours); <1 µg/mL against P. aeruginosa (Mucoid Strain 96JC, 24 hours). For the same molecule, the MIC is <1 µg/mL in the assay on P. aeruginosa (Mucoid Strain 97JE, 24 hours); <2 µg/mL against P. aeruginosa (Non-mucoid Strain 9HN, 24 hours); <1 µg/mL against P. aeruginosa (Non-mucoid Strain 30IX, 24 hours); <1 µg/mL in the assay on P. aeruginosa (Non-mucoid Strain 30JS, 24 hours); <1 µg/mL against P. aeruginosa (Non-mucoid Strain 38LL, 24 hours); <1 µg/mL in the assay with P. aeruginosa (Non-mucoid Strain 39IV, 24 hours). Besides, the MIC in the assay with P. aeruginosa (Non-mucoid Strain 46IV, 24 hours) is <1 µg/mL; in the assay on P. aeruginosa (Non-mucoid Strain 55HY, 24 hours) it was <1 µg/mL. The OD600 nm was 0.000 with B. anthracis 7702 cells (Gallium concentration 6.8 μM, TSB, 37° C.); 0.000 with B. anthracis 7702 cells (Gallium concentration 23.3 μM); 0.001 with B. anthracis 7702 cells (Gallium concentration 27.1 μM); 0.003 with B. anthracis 7702 cells (Gallium concentration 88.9 μM); 0.000 in the assay on B. anthracis 7702 cells (Gallium concentration 614.8 μM); 0.000 in the assay with B. anthracis 7702 cells (Gallium concentration 1709.9 μM). In addition, in the assay with Pa [1], the protection entry was “good protection”. Moreover, the “bactericidal concentration (MBC)” value in the assay on Pa [2] is listed as “approximately 0.7 μg/mL”. Also, the “minimum inhibitory concentration (MIC90)” value in the assay with Pa [2] was “approximately 0.7 μg/mL”.
`C[C@H]1[C@H](NC(=O)/C(=N\OC(C)(C)C(=O)O)c2csc(N)n2)C(=O)N1S(=O)(=O)O` [Aztreonam]: the “susceptibility category (R/S/I)” value in the assay on P. aeruginosa (Mucoid Strain 20JR) is “S”; with P. aeruginosa (Mucoid Strain 35LK), “S”; with P. aeruginosa (Mucoid Strain 41JQ), “R”; with P. aeruginosa (Mucoid Strain 47JS), “I”; with P. aeruginosa (Mucoid Strain 62LL) it was “R”; with P. aeruginosa (Mucoid Strain 96JC), “R”. In addition, the “susceptibility category (R/S/I)” value is given as “R” in the assay on P. aeruginosa (Mucoid Strain 97JE); “R” in the assay with P. aeruginosa (Non-mucoid Strain 9HN); “S” in the assay on P. aeruginosa (Non-mucoid Strain 30IX); “S” with P. aeruginosa (Non-mucoid Strain 30JS); “R” in the assay on P. aeruginosa (Non-mucoid Strain 38LL); “R” in the assay on P. aeruginosa (Non-mucoid Strain 39IV). The “susceptibility category (R/S/I)” value in the assay on P. aeruginosa (Non-mucoid Strain 46IV) is on record as “R”; in the assay on P. aeruginosa (Non-mucoid Strain 55HY), “I”.
For `NC[C@H]1O[C@H](O[C@H]2[C@H](O)[C@@H](O[C@H]3O[C@H](CO)[C@@H](O)[C@H](N)[C@H]3O)[C@H](N)C[C@@H]2N)[C@H](N)C[C@@H]1O` [Tobramycin], the “susceptibility category (R/S/I)” value is “S” in the assay on P. aeruginosa (Mucoid Strain 20JR); “I” with P. aeruginosa (Mucoid Strain 35LK); “R” in the assay on P. aeruginosa (Mucoid Strain 41JQ); “R” with P. aeruginosa (Mucoid Strain 47JS); “S” in the assay on P. aeruginosa (Mucoid Strain 62LL); “R” with P. aeruginosa (Mucoid Strain 96JC). The “susceptibility category (R/S/I)” value with P. aeruginosa (Mucoid Strain 97JE) is given as “R”; in the assay with P. aeruginosa (Non-mucoid Strain 9HN) it was “R”; in the assay on P. aeruginosa (Non-mucoid Strain 30IX) it was “R”; in the assay on P. aeruginosa (Non-mucoid Strain 30JS) it was “S”; in the assay with P. aeruginosa (Non-mucoid Strain 38LL), “I”; in the assay on P. aeruginosa (Non-mucoid Strain 39IV) it was “S”. For the same molecule, the “susceptibility category (R/S/I)” value in the assay with P. aeruginosa (Non-mucoid Strain 46IV) and in the assay on P. aeruginosa (Non-mucoid Strain 55HY) was “R” in each case. The MIC amounted to 128 µg/mL (≈ 274 µM) in the assay with P. aeruginosa (Pseudomonas aeruginosa, 24 h, Non-mucoid Strain 9HN) and 128 µg/mL (≈ 274 µM) in the assay with P. aeruginosa (Pseudomonas aeruginosa, 24 h, Non-mucoid Strain 55HY).
